Experiment [1] has as its target T1, DNA gyrase (Staphylococcus aureus, UniProt P0A0K8+P20831).
T1 construct: gene gyrA; recombinant DNA gyrase (A and B subunits; supercoiling assay kit); with DNA gyrase subunits A and B together (holoenzyme; target subunit not determined)
The experiment is described as follows: gyrase supercoiling assay of relaxed pBR322, agarose gel. The class given is biochemical.

The target in experiment [2] is T2, DNA gyrase subunit A (Staphylococcus aureus, UniProt P20831).
T2 construct: gene gyrA; recombinant DNA gyrase (A and B subunits; supercoiling assay kit); with DNA gyrase subunit B
T2 sequence (P20831 whole entry): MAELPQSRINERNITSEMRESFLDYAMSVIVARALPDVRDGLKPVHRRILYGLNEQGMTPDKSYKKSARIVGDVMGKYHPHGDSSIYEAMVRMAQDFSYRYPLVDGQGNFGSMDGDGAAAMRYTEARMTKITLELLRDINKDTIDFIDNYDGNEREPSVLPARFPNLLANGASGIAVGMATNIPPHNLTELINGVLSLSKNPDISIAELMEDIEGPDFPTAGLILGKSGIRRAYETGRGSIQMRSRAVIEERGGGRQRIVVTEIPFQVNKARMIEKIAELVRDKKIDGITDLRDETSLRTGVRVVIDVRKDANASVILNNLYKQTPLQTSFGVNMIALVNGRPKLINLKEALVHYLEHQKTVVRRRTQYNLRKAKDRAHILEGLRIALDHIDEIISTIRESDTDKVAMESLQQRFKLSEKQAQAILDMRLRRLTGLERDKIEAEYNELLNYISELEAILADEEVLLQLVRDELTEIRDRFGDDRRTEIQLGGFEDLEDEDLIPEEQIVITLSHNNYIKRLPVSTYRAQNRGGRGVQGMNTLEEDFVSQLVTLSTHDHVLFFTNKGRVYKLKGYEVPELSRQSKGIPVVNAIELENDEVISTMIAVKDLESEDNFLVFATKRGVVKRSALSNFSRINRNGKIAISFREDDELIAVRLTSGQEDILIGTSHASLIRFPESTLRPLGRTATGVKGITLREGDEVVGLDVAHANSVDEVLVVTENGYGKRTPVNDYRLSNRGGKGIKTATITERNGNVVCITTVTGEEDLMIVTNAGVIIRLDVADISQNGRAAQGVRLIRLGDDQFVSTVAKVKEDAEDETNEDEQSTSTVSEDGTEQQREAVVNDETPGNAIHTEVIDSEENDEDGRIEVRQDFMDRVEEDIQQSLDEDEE
The experiment is described as follows: gyrase supercoiling assay, positive control at […]. The class given is biochemical.

The values below come from paper PMC6120918, “Epigenetic modulator UVI5008 inhibits MRSA by interfering with bacterial gyrase” (Scientific Reports, 2018).

The structures appear in SMILES notation. pIC50: −log10 of the molar value.

T1 sequence (P20831 whole entry): as above
T1 sequence (P0A0K8 2-644): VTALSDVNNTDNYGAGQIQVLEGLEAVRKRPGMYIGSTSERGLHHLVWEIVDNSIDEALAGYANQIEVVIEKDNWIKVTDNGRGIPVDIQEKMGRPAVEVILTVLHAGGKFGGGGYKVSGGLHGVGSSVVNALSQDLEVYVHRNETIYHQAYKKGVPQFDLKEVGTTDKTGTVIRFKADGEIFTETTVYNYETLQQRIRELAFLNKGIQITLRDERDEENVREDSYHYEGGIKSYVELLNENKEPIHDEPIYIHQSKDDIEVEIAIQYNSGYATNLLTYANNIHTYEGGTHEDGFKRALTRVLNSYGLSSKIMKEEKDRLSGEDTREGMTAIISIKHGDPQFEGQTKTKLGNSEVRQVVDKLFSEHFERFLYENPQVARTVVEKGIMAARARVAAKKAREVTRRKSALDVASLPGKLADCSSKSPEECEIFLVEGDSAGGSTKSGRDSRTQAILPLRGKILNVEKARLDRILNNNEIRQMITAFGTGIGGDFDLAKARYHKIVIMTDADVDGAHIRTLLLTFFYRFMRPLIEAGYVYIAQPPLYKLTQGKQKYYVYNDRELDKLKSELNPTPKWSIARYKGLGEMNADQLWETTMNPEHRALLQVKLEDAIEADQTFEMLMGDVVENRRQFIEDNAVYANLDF

For `O=C(NCCSSCCNC(=O)/C(Cc1c[nH]c2ccc(Br)cc12)=N/O)/C(Cc1c[nH]c2ccc(Br)cc12)=N/O` [UVI5008], the pIC50 (usually the negative decadic logarithm of the IC50, by convention in mol/L) in experiment [1] is 4.69.

`O=C(O)c1cn(C2CC2)c2cc(N3CCNCC3)c(F)cc2c1=O` [ciprofloxacin]: the “gyrase supercoiling assay, positive control at 30 μM” value in experiment [2] is recorded as “Ciprofloxacin was used as the positive control since it blocks gyrase acting on the A subunit”.
